Columns and labels:
[1] = target: human GABAA α5β2γ1 receptor (Homo sapiens (Human), UniProt P31644+Q8N1C3); assay: Radioligand binding assay for γ1-containing GABAA subtypes, [3H]RO7239181 competition (α5β2γ1)
[2] = target: human GABAA α2β2γ1 receptor (Homo sapiens (Human), UniProt P47869+Q8N1C3); assay: Radioligand binding assay for γ1-containing GABAA subtypes, [3H]RO7239181 competition (α2β2γ1)
[3] = target: human GABAA α1β3γ2 receptor (Homo sapiens (Human), UniProt P14867+P18507); assay: Radioligand binding assay for γ2-containing GABAA subtypes, [3H]Flumazenil competition (α1β3γ2); conditions: for γ2/γ1 Selectivity Ratio: Ki α1β3γ2 (nM)/Ki α2β2γ1 (nM); for LogSel: Log[Ki α1β3γ2 (nM)/Ki α2β2γ1 (nM)]
[4] = target: α2β2γ1 GABAA receptor subtype (Homo sapiens (Human), UniProt P47869+Q8N1C3); assay: Two-electrode voltage clamp electrophysiology in Xenopus oocytes expressing GABAA receptors (modulation of GABA EC20 current); format: cell-based; conditions: for Efficacy (GABA)%: % modulation of GABA EC20 = 100*(Fold increase-1), α2β2γ1 oocytes, compound at approx. 30-fold Ki; for Fold increase h-GABA-A α2β2γ1 oocyte @ 30-fold Ki: Xenopus oocytes expressing α2β2γ1, compound at approx. 30-fold its Ki α2β2γ1, GABA EC20 current
Method in brief: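 Two-electrode voltage clamp at −80 mV, room temperature, 3-5 days after mRNA injection into oocytes. GABA applied at EC20 for 1.5 min, twice, with compound during second application; at least 3 oocytes per concentration. Efficacy = extremum of point-by-point current ratio, expressed as 100×(fold increase−1).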

[5] = Ki h-GABAA α2β2γ1, [3H]RO7239181 competition binding, human GABAA α2β2γ1
[6] = Ki h-GABAA α2β2γ1, displacement of [3H]RO7239181, membranes of HEK293F cells expressing human receptors, means of two determinations

| Structure (SMILES) | Ki [1] | Ki [2, 5] | Ki [2, 6] | Ki [3] | γ2/γ1 Selectivity Ratio [3] | LogSel [3] | Efficacy (GABA)% [4] | Fold increase h-GABA-A α2β2γ1 oocyte @ 30-fold Ki [4] |
| --- | --- | --- | --- | --- | --- | --- | --- | --- |
| C[C@@H]1N=C(c2c(F)cccc2F)c2c(ccc(Cl)c2Cl)-n2nc(C(N)=O)nc21 [Example 35, (4S)-7,8-dichloro-6-(2,6-difluorophenyl)-4-methyl-4H-[1,2,4]triazolo[1,5-a][1,4]benzodiazepine-2-carboxamide] | 0.73 nM | 6.5 nM | 6.53 nM | 778 nM | 119.1 | 2.08 | 67% | 1.67 |
| Cc1cnc2n1-c1ccc(Br)c(Cl)c1C(c1c(F)cccc1F)=N[C@H]2C [Example 116, (4S)-8-bromo-7-chloro-6-(2,6-difluorophenyl)-1,4-dimethyl-4H-imidazo[1,2-a][1,4]benzodiazepine] | 2.47 nM | 5.7 nM | 5.7 nM | 94.5 nM | 16.4 | 1.22 | 35% | 1.35 |
| C[C@@H]1N=C(c2ncccc2F)c2c(ccc(Cl)c2Cl)-n2nc(C(=O)N3CC[C@@H](F)C3)nc21 [Example 78, [(4S)-7,8-dichloro-6-(3-fluoro-2-pyridyl)-4-methyl-4H-[1,2,4]triazolo[1,5-a][1,4]benzodiazepin-2-yl]-[(3R)-3-fluoropyrrolidin-1-yl]methanone] | 18.6 nM | 96.3 nM | 96.3 nM | 6900 nM | 71.6 | 1.86 | 98% | 1.98 |
| C[C@@H]1N=C(c2c(F)cccc2F)c2c(ccc(Cl)c2Cl)-n2nc(C(=O)N3CC4(CCO4)C3)nc21 [Example 94, [(4S)-7,8-dichloro-6-(2,6-difluorophenyl)-4-methyl-4H-[1,2,4]triazolo[1,5-a][1,4]benzodiazepin-2-yl]-(1-oxa-6-azaspiro[3.3]heptan-6-yl)methanone] | 1.43 nM | 3.9 nM | 3.89 nM | 586 nM | 150.7 | 2.18 | 76% | 1.76 |
| C[C@@H]1N=C(c2c(F)cccc2F)c2c(ccc(Cl)c2Cl)-n2nc(C(=O)N3CC(OC(F)F)C3)nc21 [Example 31, [(4S)-7,8-dichloro-6-(2,6-difluorophenyl)-4-methyl-4H-[1,2,4]triazolo[1,5-a][1,4]benzodiazepin-2-yl]-[3-(difluoromethoxy)azetidin-1-yl]methanone] | 1.33 nM | 17 nM | 17 nM | 565 nM | 33.2 | 1.52 | 66% | 1.66 |
| C[C@@H]1N=C(c2c(F)cccc2F)c2c(ccc(Cl)c2Cl)-n2nc(C(=O)NC[C@@H](C)O)nc21 [Example 65, (4S)-7,8-dichloro-6-(2,6-difluorophenyl)-4-methyl-N-[(2R)-2-hydroxypropyl]-4H-[1,2,4]triazolo[1,5-a][1,4]benzodiazepine-2-carboxamide] | 0.5 nM | 5.8 nM | 5.8 nM | 492 nM | 84.8 | 1.93 | 80% | 1.80 |
| COC1CN(C(=O)c2nc3n(n2)-c2ccc(Cl)c(Cl)c2C(c2ncccc2F)=NC3)C1 [Example 62, [7,8-dichloro-6-(3-fluoro-2-pyridyl)-4H-[1,2,4]triazolo[1,5-a][1,4]benzodiazepin-2-yl]-(3-methoxyazetidin-1-yl)methanone] | 3.7 nM | 9 nM | 9 nM | 773 nM | 85.7 | 1.93 | 93% | 1.93 |
| C[C@@H]1N=C(c2ncccc2F)c2c(ccc(C(F)(F)F)c2Cl)-n2nc(C(=O)NCCO)nc21 [Example 138, (4S)-7-chloro-6-(3-fluoro-2-pyridyl)-N-(2-hydroxyethyl)-4-methyl-8-(trifluoromethyl)-4H-[1,2,4]triazolo[1,5-a][1,4]benzodiazepine-2-carboxamide] | 17.1 nM | 89.6 nM | 89.6 nM | > 30000 nM | 334.8 | 2.52 | 204% | 3.04 |
| C[C@@H]1N=C(c2c(F)cccc2F)c2c(ccc(C(F)(F)F)c2Cl)-n2nc(NC(=O)N3C4COCC3C4)nc21 (single isomer, unassigned) [Example 130] | 6.9 nM | 36.6 nM | 36.6 nM | 4190 nM | 114.5 | 2.06 | 116% | 2.16 |
| C[C@@H]1N=C(c2c(F)cccc2F)c2c(ccc(Cl)c2Cl)-n2nc(C(F)F)nc21 [Example 18] | 0.69 nM | 11.9 nM | 11.9 nM | 437 nM | 36.8 | 1.57 | 70% | 1.70 |
| O=C(c1nc2n(n1)-c1ccc(Cl)c(Cl)c1C(c1c(F)cccc1F)=NC2)N1CC(O)C1 [Example 24, [7,8-dichloro-6-(2,6-difluorophenyl)-4H-[1,2,4]triazolo[1,5-a][1,4]benzodiazepin-2-yl]-(3-hydroxyazetidin-1-yl)methanone] | 0.45 nM | 3.1 nM | 3.14 nM | 273 nM | 86.7 | 1.94 | 88% | 1.88 |
| COC1CN(C(=O)c2nc3n(n2)-c2ccc(Cl)c(Cl)c2C(c2c(F)cccc2F)=NC3)C1 [Example 11, [7,8-dichloro-6-(2,6-difluorophenyl)-4H-[1,2,4]triazolo[1,5-a][1,4]benzodiazepin-2-yl]-(3-methoxyazetidin-1-yl)methanone] | 0.84 nM | 2.7 nM | 2.71 nM | 451 nM | 166.3 | 2.22 | 62% | 1.62 |
| C[C@@H]1N=C(c2ncccc2F)c2c(ccc(C(F)(F)F)c2Cl)-n2cc(C(=O)NCC3(O)CC3)nc21 [Example 164, (4S)-7-chloro-6-(3-fluoro-2-pyridyl)-N-[(1-hydroxycyclopropyl)methyl]-4-methy-8-(trifluoromethyl)-4H-imidazo[1,2-a][1,4]benzodiazepine-2-carboxamide] | 10.6 nM | 35.2 nM | 33.7 nM | 8520 nM | 253.2 | 2.40 | 177% | 2.77 |
| [2H]C([2H])([2H])OC1CN(C(=O)c2nc3n(n2)-c2ccc(C(F)(F)F)c(Cl)c2C(c2ncccc2F)=N[C@H]3C)C1 [Example 104, [(4S)-7-chloro-6-(3-fluor-2-pyridyl)-4-methyl-8-(trifluoromethyl)-4H-[1,2,4]triazolo[1,5-a][1,4]benzodiazepin-2-yl]-[3-(trideuteriomethoxy)azetidin-1-yl]methanone] | 6.36 nM | 37.3 nM | 37.3 nM | 6300 nM | 168.8 | 2.23 | 117% | 2.17 |
| C[C@@H]1N=C(c2c(F)cccc2F)c2c(ccc(C(F)(F)F)c2Cl)-n2c1nc1c2CCC1 [Example 133, (10S)-6-chloro-8-(2,6-difluorophenyl)-10-methyl-5-(trifluoromethyl)-1,9,12-triazatetracyclo[9.6.0.02,7.013,17]heptadeca-2,4,6,8,11,13(17)-hexaene] | 5.23 nM | 23.3 nM | 23.3 nM | 827 nM | 35.5 | 1.55 | 41% | 1.41 |
| C[C@@H]1N=C(c2c(F)cccc2F)c2c(ccc(Cl)c2Cl)-n2nc(C(=O)N3CC(O)C3)nc21 [Example 25, [(4S)-7,8-dichloro-6-(2,6-difluorophenyl)-4-methyl-4H-[1,2,4]triazolo[1,5-a][1,4]benzodiazepin-2-yl]-(3-hydroxyazetidin-1-yl)methanone] | 1.44 nM | 4 nM | 3.98 nM | 688 nM | 172.8 | 2.24 | 63% | 1.63 |
| C[C@@H]1N=C(c2c(F)cccc2F)c2c(ccc(Cl)c2Cl)-n2nc(C(=O)N3CC4(CCOCC4)C3)nc21 [Example 99, [(4S)-7,8-dichloro-6-(2,6-difluorophenyl)-4-methyl-4H-[1,2,4]triazolo[1,5-a][1,4]benzodiazepin-2-yl]-(7-oxa-2-azaspiro[3.5]nonan-2-yl)methanone] | 3.29 nM | 4.5 nM | 4.45 nM | 1550 nM | 348.9 | 2.54 | 52% | 1.52 |
